Measured values from patent publication US6461997B1, “Triazole sulfones having herbicidal activity” (Monsanto Technology LLC, priority 1999, dated 2002).

How the values were obtained:
[1] = test system: IPOSS (annual morningglory); assay: Pre-plant incorporated (PPI) herbicidal activity, warm season; format: in vivo, Ipomoea spp.; conditions: Ipomoea, PPI application, read-out: Percent inhibition IPOSS
Procedure: (§1) In another set of tests, the pre-plant incorporated (PPI) activity of compounds of this invention was evaluated on the same species as for the pre-emergence tests described above. In the PPI tests the following procedure, designed to simulate PPI application, was used.
(§2) A pre-prepared topsoil mixture (described above) was placed in a pot and compacted to a depth of 1.0 to 1.25 cm from the top of the pot. Seeds of each of several monocotyledonous and dicotyledonous annual plant species were placed on top of the soil. A sufficient quantity of soil to cover the seeds and level fill the pot was weighed into an open container. A known amount of the test compound was dissolved or suspended in an organic solvent and applied by spraying to this cover soil. The cover soil was thoroughly mixed to distribute the test compound throughout the cover soil, and was then applied as a cover layer over the seeds. Untreated soil was used as a cover layer for control pots. After treatment the plants were placed in a greenhouse where they received 0.64 cm of overhead irrigation. All subsequent watering consisted of a light overhead mist and/or subirrigation as needed for germination and growth. Tables 9 and 10 below relate to warm season plant species which were placed after pre-emergence treatment in a greenhouse with a 30/21° C. day/night temperature regime. Tables 11 and 12 below relates to cool season plant species placed after pre-emergence treatment in a greenhouse or growth chamber with an 18/13° C. day/night temperature regime. Only the compounds of Examples 1, 6, 8, 11, 13 and 15-20 were included in PPI tests.
(§3) Approximately 14 days after planting and treating, the plants were observed and herbicidal efficacy recorded as percent inhibition by comparison with untreated plants.

[2] = test system: CIRAR (canada thistle (seedling)); assay: as above; format: in vivo, Cirsium arvense; conditions: GR80 = lowest tested rate with 80% or greater inhibition, approx. 14 days after treating, 30/21° C.
Procedure: as §1, §2, §3

[3] = test system: AVEFA (wild oat); assay: Pre-emergence herbicidal activity, cool season; format: in vivo, Avena fatua; conditions: GR80 = lowest tested rate (300, 100, 30, 10 g/ha) with 80% or greater inhibition; approx. 14 days after treating; 18/13° C.
How it was run: (§4)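 Seeds sown in sterilised fertilised topsoil received surface-applied compound in 50:50 acetone/water, typically at 300, 100, 30 and 10 g/ha, then greenhouse-grown at 30/21° C (warm-season species) or 18/13° C (cool-season species). Percent inhibition versus untreated plants was scored at about 14 days, giving GR80; an asterisk marks activity short of 80% at the top rate.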

[4] = test system: POROL (common purslane); assay: Pre-plant incorporated (PPI) herbicidal activity, warm season; format: in vivo, Portulaca oleracea; conditions: GR80 = lowest tested rate with 80% or greater inhibition, approx. 14 days after treating, 30/21° C.
Procedure: as §1, §2, §3

[5] = test system: ABUTH (velvetleaf); assay: Pre-emergence herbicidal activity, warm season; format: in vivo, Abutilon theophrasti; conditions: for Pre-emergence activity (GR80) ABUTH: GR80 = lowest tested rate (300, 100, 30, 10 g/ha) with 80% or greater inhibition, approx. 14 days after treating, 30/21° C.
How it was run: as §4

[6] = test system: LOLMG (annual ryegrass); assay: Pre-emergence herbicidal activity, cool season; format: in vivo, Lolium multiflorum; conditions: GR80 = lowest tested rate (300, 100, 30, 10 g/ha) with 80% or greater inhibition; approx. 14 days after treating; 18/13° C.
How it was run: as §4

[7] = test system: CONAR (field bindweed); assay: Pre-plant incorporated (PPI) herbicidal activity, warm season; format: in vivo, Convolvulus arvensis; conditions: GR80 = lowest tested rate with 80% or greater inhibition, approx. 14 days after treating, 30/21° C.
Procedure: as §1, §2, §3

[8] = test system: AGRRE (quackgrass (seedling)); assay: Pre-emergence herbicidal activity, cool season; format: in vivo, Elymus repens; conditions: GR80 = lowest tested rate (300, 100, 30, 10 g/ha) with 80% or greater inhibition; approx. 14 days after treating; 18/13° C.
How it was run: as §4

[9] = test system: CONAR (field bindweed); assay: Pre-emergence herbicidal activity, warm season; format: in vivo, Convolvulus arvensis; conditions: GR80 = lowest tested rate (300, 100, 30, 10 g/ha) with 80% or greater inhibition; approx. 14 days after treating; 30/21° C.
How it was run: as §4

[10] = test system: BROTE (downy brome); assay: Pre-emergence herbicidal activity, cool season; format: in vivo, Bromus tectorum; conditions: GR80 = lowest tested rate (300, 100, 30, 10 g/ha) with 80% or greater inhibition; approx. 14 days after treating; 18/13° C.
How it was run: as §4

[11] = test system: KCHSC (kochia); assay: Pre-plant incorporated (PPI) herbicidal activity, cool season; format: in vivo, Kochia scoparia; conditions: pre-plant incorporated; lowest tested rate with 80% or greater inhibition; about 14 days
Procedure: as §1, §2, §3

[12] = test system: XANST (cocklebur); assay: Pre-emergence herbicidal activity, warm season; format: in vivo; conditions: Xanthium strumarium, pre-emergence application, read-out: Percent inhibition, weed XANST
Procedure: (§5) Tables 5 to 8 summarize results of tests conducted as described below to determine the pre-emergence herbicidal activity, in the form of a GR80 value, of illustrative compounds of this invention. […] Compounds of the invention were typically applied at rates of 300, 100, 30, and 10 g/ha. Where herbicidal activity was evident but 80% inhibition was not achieved at the highest rate tested, an asterisk (*) is shown in the following tables.
(§6) The pre-emergence tests were conducted by the following procedure. Topsoil was sieved to pass through a 1.27 cm screen. Fertilizer was added to the topsoil and the mixture was then sterilized by heating. The topsoil mixture was placed in a pot and compacted to a depth of 1.0 to 1.25 cm from the top of the pot. Seeds of each of several monocotyledonous and dicotyledonous annual plant species were placed on top of the soil. Additional soil was subsequently placed over the seeds to level-fill the pot. A known amount of each test compound dissolved or suspended in an appropriate organic solvent was diluted with a 50:50 mix of acetone and water and applied to the surface of the soil. After treatment the plants were placed in a greenhouse where they received 0.64 cm of overhead irrigation. All subsequent watering consisted of a light overhead mist and/or subirrigation as needed for germination and growth. Tables 5 and 6 below relate to warm season plant species which were placed after pre-emergence treatment in a greenhouse with a 30/21° C. day/night temperature regime. Tables 7 and 8 below relates to cool season plant species placed after pre-emergence treatment in a greenhouse or growth chamber with an 18/13° C. day/night temperature regime.
as §3
(§7) The plant species usually regarded as weeds which were utilized in the tests are identified in the tables below according to the following legend, in which “d” indicates a dicotyledonous species and “m” a monocotyledonous species. All monocotyledonous species included in the tests herein are grasses.

[13] = test system: SASKR (russian thistle); assay: Pre-plant incorporated (PPI) herbicidal activity, cool season; format: in vivo, Salsola kali; conditions: for PPI activity GR80, SASKR: pre-plant incorporated, lowest tested rate with 80% or greater inhibition, about 14 days
Procedure: as §1, §2, §3

[14] = test system: DATST (jimsonweed); assay: Pre-emergence herbicidal activity, warm season; format: in vivo, Datura stramonium; conditions: for Pre-emergence activity (GR80) DATST: GR80 = lowest tested rate (300, 100, 30, 10 g/ha) with 80% or greater inhibition, approx. 14 days after treating, 30/21° C.
How it was run: as §4

[15] = test system: KCHSC (kochia); assay: Pre-emergence herbicidal activity, cool season; format: in vivo, Kochia scoparia; conditions: lowest tested rate with 80% or greater inhibition; rates 300, 100, 30, 10 g/ha; about 14 days
Procedure: as §5, §6, §3, §7

[16] = Abutilon theophrasti, pre-emergence application, read-out: Percent inhibition, weed ABUTH
[17] = Datura stramonium, pre-emergence application, read-out: Percent inhibition, weed DATST

| SMILES | inhibition at 300 g/ha [1] [%] | inhibition at 900 g/ha [1] [%] | PPI activity (GR80) CIRAR [2] [g/ha] | PPI activity (GR80) POROL [4] [g/ha] | inhibition at 10 g/ha [5, 16] [%] | inhibition at 30 g/ha [5, 16] [%] | inhibition at 300 g/ha [5, 16] [%] | inhibition at 900 g/ha [5, 16] [%] | Pre-emergence activity (GR80) ABUTH [5] [g/ha] | PPI activity (GR80) CONAR [7] | PPI activity GR80, KCHSC [11] [g/ha] | inhibition at 10 g/ha [12] [%] | inhibition at 30 g/ha [12] [%] | PPI activity GR80, SASKR [13] [g/ha] | inhibition at 10 g/ha [14, 17] [%] | inhibition at 30 g/ha [14, 17] [%] | inhibition at 100 g/ha [14, 17] [%] | inhibition at 300 g/ha [14, 17] [%] | Pre-emergence activity (GR80) DATST [14] [g/ha] | further results |
| --- | --- | --- | --- | --- | --- | --- | --- | --- | --- | --- | --- | --- | --- | --- | --- | --- | --- | --- | --- | --- |
| CCN(CC)C(=O)n1cnc(S(=O)(=O)C(F)(F)Br)n1 [Example 1, 3-(bromodifluoromethylsulfonyl)-1-(N,N-diethylcarbamoyl)-1,2,4-triazole] | 60 | 80 | 100 | 30 | 0 | 0 | 0 | 0 | 300 | 100 g/ha | 100 | 0 | 0 | 100 | 0 | 0 | 0 | 0 | 300 | inhibition at 10 g/ha ([1]; 10 g/ha): 0%; Pre-emergence activity (GR80) AVEFA [3]: 100 g/ha; Pre-emergence activity (GR80) LOLMG [6]: 100 g/ha; Pre-emergence activity (GR80) AGRRE [8]: 300 g/ha; Pre-emergence activity (GR80) CONAR [9]: 300 g/ha; Pre-emergence activity (GR80) BROTE [10]: 300 g/ha; inhibition at 30 g/ha ([13]; Salsola kali, weed, PPI application, 30 g/ha, read-out: Percent inhibition SASKR): 80%; inhibition at 100 g/ha ([13]; Salsola kali, weed, PPI application, 100 g/ha, read-out: Percent inhibition SASKR): 100%; inhibition at 300 g/ha ([13]; Salsola kali, weed, PPI application, 300 g/ha, read-out: Percent inhibition SASKR): 100%; inhibition at 900 g/ha ([13]; Salsola kali, weed, PPI application, 900 g/ha, read-out: Percent inhibition SASKR): 100%; inhibition at 900 g/ha ([14]; Datura stramonium, pre-emergence application, 900 g/ha, read-out: Percent inhibition, weed DATST): 20%; Pre-emergence activity GR80, KCHSC [15]: 300 g/ha |
| CCN(CC)C(=O)n1cnc(S(=O)(=O)C(F)F)n1 [Example 15, 1-(N,N-diethylcarbamoyl)-3-(difluoromethylsulfonyl)-1,2,4-triazole] | 20 | 20 | 100 | 100 | 0 | 0 | 0 | 0 | 300 | * (activity observed, at least at highest rate, but <80% inhibition) | 100 | 0 | 0 | 100 | 0 | 0 | 0 | 0 | 300 | inhibition at 30 g/ha ([1]; 30 g/ha): 0%; inhibition at 100 g/ha ([5]; Abutilon theophrasti, pre-emergence application, 100 g/ha, read-out: Percent inhibition, weed ABUTH): 0%; inhibition at 100 g/ha ([12]; 100 g/ha): 0%; inhibition at 300 g/ha ([12]; 300 g/ha): 0% |
